Source: patent publication US8983257B2, “Therapeutic light delivery apparatus, method, and system” (Nomir Medical Technologies, Inc., priority 2002, dated 2015)
Where “and” joins values, the source holds several entries; their conditions need not be identical. Equal entries are not always repeated. Entries after “also recorded” stand apart in the source; their conditions may differ.

Legend:
MRSA [1] = assay: MRSA CFU counts on agar with trimethoprim or erythromycin after sub-lethal NIMELS laser (Example VIII); assay type: cell-based, Staphylococcus aureus; details: plates B-4 1 to 5
Source text: The following illustrates the general antibacterial methods according to the invention, using a MRSA model for the in vitro Experiments V and VIII-XII.
a) μ1 is sub-lethal dosimetry from the NIMEL laser system on MRSA as a control and;

[2] = test system: MRSA colonization in the nares; assay: Human study Part One: nasal colonization of MRSA, NOVEON laser alone, with H2O2 or with topical erythromycin; assay type: in vivo, Staphylococcus aureus; details: for MRSA Average: per patient, mean of triplicate plates, all arms with NOVEON laser
Method: (§1) This investigational protocol was an open-label study of subjects who are colonized with MRSA in the nares (nostril). The study was done in two parts.
(§2) In this human study, three arms were produced. […] This was done on day 1 and again on day three; and Arm #3: ⅓ of the subjects were treated with the laser and then a topical antibiotic three times a day for five days. Prior to enrollment in this study, prospective subjects met all of the following criteria: age≧18 years and ≦70 years of age; previous positive MRSA culture; negative urine pregnancy test or post-menopausal for one year; willing to comply with study requirements, including return visits and self-application of topical antibiotics; and willing to provide informed consent to participate. Prospective subjects were excluded from this study if any of the following criteria were met: pregnancy; patients who are severely immunocompromised (such as may occur in AIDS, renal transplant regimens, immunosuppressed states consequent to malignancy or agents used in rendering oncologic care, or who suffer from end stage renal disease); diabetic patients; allergy to antimicrobials being used in the study (group 3).
(§3) All participants underwent an initial quantitative assessment for nasal carriage of S. aureus, during their first visit. Each participant had the anterior nares (each nostril) sampled for culture with a circular movement (three rotations on each side) of a sterile wood applicator plain Rayon® tipped swab in each nostril and placed in a labeled tube. 2 ml of room temp phosphate buffered saline was placed in the tube after the removal of the swab (to completely cover the swab in the tube). Each swab was then placed back in the tube and the tube was then vortexed for 15 seconds to disperse isolates of MRSA and/or MSSA into the PBS solution. Aliquots of PBS from the tube were plated in the following manner: 100 μl from each tube was lawn plated in triplicate (3×) on selective Chromogenic MRSA And MSSA agar. Plates were placed in incubator within 30 minutes of the plating procedure, and colonies were counted manually, and recorded 18 hrs after plating.
(§4) On day one of the study, all subjects underwent this exact procedure in arms 1 and 2 of the study two minutes before the laser procedure. They again were sampled in the same manner 2 minutes after the laser procedure. In the third arm of the study, they were swabbed two minutes before the procedure and the first antibiotic administration was completed after the laser therapy. The post/laser swab sample was taken for this arm 20 min later.
(§5) On day three of the study, all subjects from arms one two and three underwent the exact same procedures as day 1 of the study.
(§6) On day five all subjects from all arms underwent just one swabbing per nostril with the exact same sampling procedure one time.
(§7) 3% OTC hydrogen peroxide was applied to a cotton pledget for application to the subject prior to irradiation. This was inserted in the nose for 120 seconds and then removed. The subjects were then given doses of phototherapeutic near infrared radiation as described.
(§8) The subjects were first given doses of phototherapeutic near infrared radiation as described. […] The swab was inserted approximately 1 cm in to the anterior nares and rotated 360 degrees several times and removed. Patients were instructed to perform the exact application procedure 3 times a day for the remaining 5 days.
(§9) The NOVEON™ laser was used for two (2) six-minute treatments in each nostril on day (1) and day (3) of the study.
(§10) The laser was calibrated before the first treatment of the day. Intermittent temperature testing of the treatment site was performed on each subject using a noncontact infrared thermometer (Raytek Minitemp), 30-60 second intervals. If a temperature of 110 F degrees was reached, or the patient complained of pain, the laser treatment was interrupted and only resumed when the patient was comfortable.

MRSA [3] = assay: MRSA/antimicrobial potentiation Experiment 4: CFU with or without methicillin, penicillin G or erythromycin, groups A4 to F4; assay type: cell-based, Staphylococcus aureus; details: for Laser Effect (+Drug): ratio of AVG Exp with drug to Cont with drug; for Drug Effect / Fold increase in antibiotic sensitivity: 0.5 μg/ml penicillin G; for Drug Effect: ratio of AVG with drug to without drug; for AVG (CFU) / CFU/ml / CFU: agar with 0.5 μg/ml penicillin G
Method: Two different laser dosages based on an effective dose established in previous experiments were used to treat a saline-suspension of logarithmically growing MRSA, labeled A4 to F4.
After 24 hrs of growth at 37° C. colonies were counted.

[4] = test system: MSSA colonies in the nares; assay: Human study Part One: nasal colonization of MSSA, NOVEON laser alone, with H2O2 or with topical erythromycin; assay type: in vivo, Staphylococcus aureus; details: per patient, mean of triplicate plates, all arms with NOVEON laser
Method: as §1, §2, §3, §4, §5, §6, §7, §8, §9, §10

[5] = Initial Analysis, Post-treatment swab, left nostril
[6] = Initial Analysis, Post-treatment swab, right nostril
[7] = Initial Analysis, Pre swab, left nostril
[8] = Initial Analysis, Pre swab, right nostril
[9] = Second Analysis, Post-treatment swab, left nostril
[10] = Second Analysis, Post-treatment swab, right nostril
[11] = Second Analysis, Pre swab, left nostril
[12] = Second Analysis, Pre swab, right nostril
[13] = Third Analysis, Swab, left nostril
[14] = Third Analysis, Swab, right nostril

COc1cc(Cc2cnc(N)nc2N)cc(OC)c1OC [Trimethoprim]
MRSA colony count, CONTROL (no laser), trimeth 2 ug/ml (MRSA [1]; no laser, agar with trimethoprim 2 ug/ml): 145 and 213 and 198 and 240 and 220 | MRSA colony count, EXPERIMENTAL, trimeth 2 ug/ml (MRSA [1]; sub-lethal NIMELS laser, then plated on agar with trimethoprim 2 ug/ml): 100 and 110

OO [H2O2, hydrogen peroxide]
outcome of the Laser plus H2O2 arm (in words) ([2]; human subjects, 3% hydrogen peroxide in the nose for 120 seconds, then laser, day 1 and day 3): may have had some transient benefit in some of the patients, but no obvious long-term efficacy

Penicillin
Laser Effect (+Drug) (MRSA [3]; Group C4, 0.5 μg/ml penicillin G): 0.28 | Drug Effect (MRSA [3]; Group C4, Cont (no laser)): 0.75 | AVG (CFU) (MRSA [3]; Group C4, Cont (no laser)): 108.4 CFU | CFU/ml (MRSA [3]; Group C4, Cont (no laser)): 3.25E+08 CFU/ml | CFU (MRSA [3]; Group C4, Cont (no laser), replicate plates 1-5, 24 hrs 37° C.): 106 CFU and 99 CFU and 102 CFU and 113 CFU and 122 CFU | Drug Effect (MRSA [3]; Group C4, Exp (laser treated)): 0.34 | AVG (CFU) (MRSA [3]; Group C4, Exp (laser treated)): 30.4 CFU | CFU/ml (MRSA [3]; Group C4, Exp (laser treated)): 9.12E+07 CFU/ml | CFU (MRSA [3]; Group C4, Exp (laser treated), replicate plates 1-5): 25 CFU and 33 CFU (2×) and 19 CFU and 42 CFU | Laser Effect (+Drug) (MRSA [3]; Group D4, 0.5 μg/ml penicillin G): 0.18 | Drug Effect (MRSA [3]; Group D4, Cont (no laser)): 1.07 | AVG (CFU) (MRSA [3]; Group D4, Cont (no laser)): 132.8 CFU | CFU/ml (MRSA [3]; Group D4, Cont (no laser)): 3.98E+08 CFU/ml | CFU (MRSA [3]; Group D4, Cont (no laser), replicate plates 1-5, 24 hrs 37° C.): 101 CFU and 111 CFU and 138 CFU and 132 CFU and 182 CFU | Drug Effect (MRSA [3]; Group D4, Exp (laser treated)): 0.31 | AVG (CFU) (MRSA [3]; Group D4, Exp (laser treated)): 23.8 CFU | CFU/ml (MRSA [3]; Group D4, Exp (laser treated)): 7.14E+07 CFU/ml | CFU (MRSA [3]; Group D4, Exp (laser treated), replicate plates 1-5): 14 CFU and 23 CFU and 22 CFU and 29 CFU and 31 CFU | Fold increase in antibiotic sensitivity (MRSA [3]; grouping C4): 2.21 | Fold increase in antibiotic sensitivity (MRSA [3]; grouping D4): 3.45 | synergy or potentiation with NIMELS in growth inhibition of MRSA colonies (in words) (MRSA [3]; sub-lethal NIMELS dosimetry, bar chart figure): synergistic effects; also recorded: potentiated by sub-lethal NIMELS dosimetry | reversal of MRSA resistance in vitro by dual wavelength NOVEON laser (in words) (MRSA [3]; temperature levels not lethal to the organism): successful reversal of MRSA resistance

OO [Peroxide]
MRSA Average [2, 5]: 0 CFU (2×) and 22 CFU and 1 CFU | MRSA Average [2, 6]: 0 CFU (2×) and 455 CFU and 2752 CFU | MRSA Average [2, 7]: 0 CFU (2×) and 63 CFU and 4 CFU | MRSA Average [2, 8]: 0 CFU (2×) and 30 CFU and 4032 CFU | MRSA Average [2, 9]: 0 CFU (3×) and 12 CFU | MRSA Average [2, 10]: 0 CFU (2×) and 114 CFU and 3347 CFU | MRSA Average [2, 11]: 0 CFU (2×) and 180 CFU and 17 CFU | MRSA Average [2, 12]: 0 CFU (2×) and 90 CFU and 3099 CFU | MRSA Average [2, 13]: 0 CFU (3×) and 827 CFU | MRSA Average [2, 14]: 0 CFU (2×) and 563 CFU and 3648 CFU | s. aureus Average [4, 5]: 0 CFU (2×) and 20 CFU and 1 CFU | s. aureus Average [4, 6]: 0 CFU and 506 CFU and 146 CFU and 3272 CFU | s. aureus Average [4, 7]: 1 CFU and 53 CFU and 17 CFU and 124 CFU | s. aureus Average [4, 8]: 0 CFU and 29 CFU and 285 CFU and 3996 CFU | s. aureus Average [4, 9]: 0 CFU (3×) and 10 CFU | s. aureus Average [4, 10]: 0 CFU and 126 CFU and 5 CFU and 3589 CFU | s. aureus Average [4, 11]: 1 CFU and 206 CFU and 4 CFU and 12 CFU | s. aureus Average [4, 12]: 1 CFU and 94 CFU and 257 CFU and 4373 CFU | s. aureus Average [4, 13]: 1 CFU and 868 CFU and 28 CFU and 0 CFU | s. aureus Average [4, 14]: 1 CFU and 586 CFU and 52 CFU and 3493 CFU
